# Test results as given in US20150352037A1, “ANTI-AGING COMPOSITION FOR VITALIZATION OF RETINOIC ACID RECEPTOR THAT CONTAINS MIXED EXTRACT OF CHINESE MATRIMONY VINE AND PINE NEEDLES AS EFFECTIVE COMPONENT” (Amorepacific Corporation, priority 2011, published 2015).
# Legend:
# Assay type in all cases: cell-based
# [1] = target: T1, retinoic acid receptor α (RAR-α) (Homo sapiens, UniProt P10276); experiment: Retinoic acid receptor α transcriptional activity, luciferase reporter in transfected CV-1 cells; conditions: monkey kidney epithelial CV-1 cells, 20 h; extracts 100 μg/ml (Example 3: 100 μg/ml of each extract), retinoic acid 1 μM; corrected with β-galactosidase activity; control = 100
# T1 construct: expressed in transfected cells; host or cells: monkey kidney epithelial CV-1 cells
# T1 sequence (P10276 1-462): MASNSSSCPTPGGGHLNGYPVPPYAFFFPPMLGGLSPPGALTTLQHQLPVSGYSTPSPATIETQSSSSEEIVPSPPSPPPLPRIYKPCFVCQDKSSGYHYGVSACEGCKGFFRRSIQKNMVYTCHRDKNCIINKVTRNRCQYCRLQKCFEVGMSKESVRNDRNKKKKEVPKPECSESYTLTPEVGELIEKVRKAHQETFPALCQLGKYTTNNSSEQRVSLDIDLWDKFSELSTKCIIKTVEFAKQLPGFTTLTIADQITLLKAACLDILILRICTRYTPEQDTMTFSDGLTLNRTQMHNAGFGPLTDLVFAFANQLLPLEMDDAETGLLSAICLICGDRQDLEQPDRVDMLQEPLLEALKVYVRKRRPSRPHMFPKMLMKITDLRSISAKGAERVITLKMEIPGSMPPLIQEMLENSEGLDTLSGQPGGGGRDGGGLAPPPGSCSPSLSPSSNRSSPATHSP
# Description: (§1) Using the Lycium chinense extract obtained in Example 1, the pine needle extract obtained in Example 2, and the Lycium chinense extract/pine needle extract mixture (Example 3) obtained by mixing the extract of Example 1 with the extract of Example 2, their effects on retinoic acid receptor α/γ (RAR-α/γ) transcriptional activities were measured in the following manner. As a positive control, retinoic acid known to activate retinoic acid receptor was used.
# (§2) First, monkey kidney epithelial CV-1 cells were seeded into a 24-well plate at a concentration of 4×10^4 cells/well and cultured for 12-16 hours. Before transfection, the plate was washed with phosphate buffered saline (PBS), and then the medium was cultured. […] Then, each of the cell lysates was transferred to a cell culture plate (Costar) for a 96-well luminometer, and luciferase activity for each cell lysate was measured using Luciferase Assay System™ kit (Promega Corporation) according to the manufacturer's instruction. […]
# (§3) Next, 50 μl of 1 M sodium carbonate (Na2CO3) solution was added to each well, and the absorbance of each well at 415 nm was measured. The efficiency of transformation in each cell lysate was corrected with the β-galactosidase activity measured as described above, and the relative activity of luciferase to the β-galactosidase activity was calculated and compared between Examples.
# [2] = system: collagenase; experiment: Inhibition of collagenase expression (collagenase production) in human fibroblasts, ELISA absorbance at 405 nm; conditions: 24 h treatment, extracts 100 μg/ml (Example 3: 100 μg/ml of each extract), retinoic acid 1 μM, untreated control = 100
# Description: Using the Lycium chinense fruit extract obtained in Example 1, the pine tree extract obtained in Example 2, and a 1:1 (w/w) mixture (Example 3) of a Lycium chinense fruit extract obtained by extracting 100 g of Lycium chinense fruits according to the method of Example 1 and a pine needle extract obtained by extracting 100 g of pine needles according to the method of Example 2, their effects on the inhibition of collagenase expression (collagenase production) were measured in the following manner. As a positive control, retinoic acid known to inhibit collagenase expression was used. […]
# Next, the degree of collagenase production in each of the harvested cell cultures was measured using a collagenase measurement device (Amersham Phamasia, USA). […]
# The absorbance of the 96-well plate having a yellow color was measured at 405 nm using an absorbance spectrometer, and the expression of collagenase was calculated using the following Equation 1. Herein, the absorbance of an untreated group was used as a control group. That is, the expression of collagenase in the control group was set at 100, and the expression of collagenase in each test group was calculated relative to the control group. […]
# wherein A is the absorbance of the cell group treated with each test material, and B is the absorbance of the control group.
# [3] = target: T2, retinoic acid receptor γ (RAR-γ) (Homo sapiens, UniProt P13631); experiment: Retinoic acid receptor γ transcriptional activity, luciferase reporter in transfected CV-1 cells; conditions: monkey kidney epithelial CV-1 cells, 20 h; extracts 100 μg/ml (Example 3: 100 μg/ml of each extract), retinoic acid 1 μM; corrected with β-galactosidase activity; control = 100
# T2 construct: expressed in transfected cells; host or cells: monkey kidney epithelial CV-1 cells
# T2 sequence (P13631 1-454): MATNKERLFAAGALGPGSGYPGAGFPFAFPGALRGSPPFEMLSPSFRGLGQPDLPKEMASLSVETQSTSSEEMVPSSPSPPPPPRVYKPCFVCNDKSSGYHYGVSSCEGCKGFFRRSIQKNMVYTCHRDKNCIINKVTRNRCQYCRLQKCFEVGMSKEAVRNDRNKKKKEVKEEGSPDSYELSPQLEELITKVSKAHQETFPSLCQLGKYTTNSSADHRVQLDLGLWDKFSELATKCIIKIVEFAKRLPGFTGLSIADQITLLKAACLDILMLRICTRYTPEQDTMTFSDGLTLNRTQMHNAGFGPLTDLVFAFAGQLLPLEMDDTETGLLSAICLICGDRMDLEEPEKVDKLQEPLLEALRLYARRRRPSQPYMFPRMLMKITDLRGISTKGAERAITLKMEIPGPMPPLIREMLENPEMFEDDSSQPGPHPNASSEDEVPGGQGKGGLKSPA
# Description: as §1, §2, §3
smiles,measurement,setting,value
"CC1=C(/C=C/C(C)=C/C=C/C(C)=C/C(=O)O)C(C)(C)CCC1 [Retinoic acid, retinoic acid]",Relative activity (%) of luciferase (RAR-α),[1],343%
same,Collagenase expression (%),[2],51.3%
same,Relative activity (%) of luciferase (RAR-γ),[3],385%
